These results are taken from patent US8940765B2, “N-linked quinolineamide M1 receptor positive allosteric modulators” (Merck Sharp & Dohme Corp., priority 2011, dated 2015).

The assay deals with T1, acetylcholine muscarinic M1 receptor (Homo sapiens, UniProt P11229).
T1 construct: expressed in transfected cells; host or cells: CHOnfat cells (CHO with NFAT reporter background) stably expressing hM1, Geneticin selection
T1 sequence (P11229 1-460): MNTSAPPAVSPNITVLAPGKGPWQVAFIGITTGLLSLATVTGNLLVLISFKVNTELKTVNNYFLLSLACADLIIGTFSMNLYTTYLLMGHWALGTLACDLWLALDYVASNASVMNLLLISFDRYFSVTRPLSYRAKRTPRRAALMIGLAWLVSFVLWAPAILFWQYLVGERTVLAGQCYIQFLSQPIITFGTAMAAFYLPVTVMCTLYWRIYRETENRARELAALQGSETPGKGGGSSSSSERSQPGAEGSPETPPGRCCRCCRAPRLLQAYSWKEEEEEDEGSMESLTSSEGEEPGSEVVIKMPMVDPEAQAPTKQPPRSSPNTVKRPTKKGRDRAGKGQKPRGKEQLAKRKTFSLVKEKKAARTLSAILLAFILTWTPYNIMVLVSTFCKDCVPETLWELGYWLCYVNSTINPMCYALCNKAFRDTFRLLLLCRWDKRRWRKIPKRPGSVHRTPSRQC
Nature of the assay: muscarinic FLIPR assay: intracellular calcium in CHOnfat/hM1 cells, potentiation of EC20 acetylcholine. The class given is cell-based. The conditions noted are these: FLIPR Ca2+, 4 min preincubation, then EC20 acetylcholine (3 nM final), read-out: IP Value (inflection point). As for the experimental part:
The assay studies the effect of one or several concentrations of test compounds on basal or acetylcholine-stimulated Ca^2+ levels using FLIPR.
Compounds are prepared and subjected to a preincubation period of 4 min. Thereafter, a single EC20 concentration of acetylcholine is added to each well (3 nM final). The intracellular Ca^2+ level of each sample is measured and compared to an acetylcholine control to determine any modulatory activity.
Cells: CHOnfat/hM1, hM2, hM3 or hM4 cells are plated 24 hr before the assay at a density of 18,000 cells/well (100 μL) in a 384 well plate. CHOnfat/hM1 and CHOnfat/hM3 Growth Medium: 90% DMEM (Hi Glucose); 10% HI FBS; 2 mM L-glutamine; 0.1 mM NEAA; Pen-Strep; and 1 mg/ml Geneticin, are added. For M2Gqi5CHOnfat and M4Gqi5CHOnfat cells, an additional 600 ug/ml hygromycin is added.
Equipment: 384 well plate, 120 μL addition plate; 96-well Whatman 2 ml Uniplate Incubator, 37° C., 5% CO2; Skatron EMBLA-384 Plate Washer; Multimek Pipetting System; Genesis Freedom 200 System; Mosquito System; Temo Nanoliter Pipetting System; and FLIPR384 Fluorometric Imaging Plate Reader System are used.
Buffers. Assay Buffer: Hanks Balanced Salt Solution, with 20 mM Hepes, 2.5 mM Probenecid (Sigma P-8761) first dissolved in 1 N NaOH, 1% Bovine Serum Albumin (Sigma A-9647). Dye Loading Buffer: Assay Buffer plus 1% Fetal Bovine Serum and Fluo-4AM/Pluronic Acid Mixture. 2 mM Fluo-4AM ester stock in DMSO (Molecular Probes F-14202) Concentration of 2 μM in buffer for a final concentration of 1 μM in Assay. 20% Pluronic Acid Solution stock, with concentration of 0.04% in Buffer, 0.02% in Assay.
65 μl, of 2 mM Fluo-4AM are mixed with 130 μL of 20% Pluronic Acid. The resulting solution and 650 μL FBS is added to the assay buffer for a total volume of 65 mL. Positive Controls: 4-Br-A23187: 10 mM in DMSO; final concentration 10 μM. Acetylcholine: 10 mM in water, working stock at both 20 μM and 30 μM in assay buffer, final concentration of 10 μM. This is used to check the maximum stimulation of the CHOK1/hM1 cells. 20 μM (2×) acetylcholine is added in the preincubation part of the assay, and the 30 μM (3×) stock is added in the second part. (EC20)Acetylcholine: 10 mM in water, working stock of 9 nM (3×), and final concentration in assay is 3 nM. This is used after the preincubation with test compounds. Addition of the EC20 Acetylcholine to each well with a test compound will ascertain any modulator activity. 24 wells contain 3 nM Acetylcholine alone as a control.
Determining Activity of Putative Compounds:
Screening Plate: Compounds are titrated in 96-well plates (columns 2-11), 100% DMSO, started at a concentration of 15 mM (150× stock concentration), and 3-fold serial dilutions using Genesis Freedom200 System. Four 96-well plates are combined into a 384-well plate using Mosquito Nanoliter Pipetting System by transferring 1 μl of serial diluted compounds to each well, and 1 mM acetylcholine (100× stock concentration) were added as a control. Using Temo, 49 μl assay buffer is added to each well of the 384-well plate right before assay.
In a 96-well Whatman 2 ml Uniplate, 9 nM Acetylcholine (3×) is pipetted into wells corresponding to the screening compounds, and into control wells. The 30 μM acetylcholine control (3×) is added into control wells, and the 3× agonist plate is transferred into a 384 well plate.
Cells are washed three times with 100 μL of buffer, leaving 30 μL of buffer in each well. Using Multimek, 30 μl, of Dye Loading Buffer is added into each well and incubated at 37° C., 5% CO2 for up to one hr.
After […], the cells are washed three times with 100 μL of buffer, leaving 30 μL of buffer in each well. The cell plate, screening plate, and agonist addition plates are placed on the platform in the FLIPR and the door closed. A signal test to check background fluorescence and basal fluorescence signal is performed. Laser intensity is adjusted if necessary. […]
For orientation: A change in cytosolic calcium serves as a functional read-out for many receptors and channels.
Consider `N#CC1(c2cccnc2)CCN(Cc2cc(C(=O)N[C@H]3CCCC[C@@H]3O)nc3ccccc23)CC1` [Example 9, 4-[(4-cyano-4-pyridin-3-ylpiperidin-1-yl)methyl]-N-[(1S,2S)-2-hydroxycyclohexyl]quinoline-2-carboxamide], for which the EC50 was 0.054 µM. The value for `Cc1ccnc(C2(C#N)CCN(Cc3cc(C(=O)N[C@H]4CCOC[C@@H]4O)nc4ccccc34)CC2)c1` [Example 8, 1,5-anhydro-3-{[(4-{[4-cyano-4-(4-methylpyridin-2-yl)piperidin-1-yl]methyl}quinolin-2-yl)carbonyl]amino}-2,3-dideoxy-L-threo-pentitol] was 0.027 µM. The value for `N#CC1(c2ccccn2)CCN(Cc2cc(C(=O)N[C@H]3CCCC[C@@H]3O)nc3ccccc23)CC1` [Example 1, 4-[(4-cyano-4-pyridin-2-ylpiperidin-1-yl)methyl]-N-[(1S,2S)-2-hydroxycyclohexyl]quinoline-2-carboxamide] was 0.054 µM. With `Cn1cc(N2CCN(Cc3cc(C(=O)N[C@H]4CCCC[C@@H]4O)nc4ccccc34)CC2)cn1` [Example 2, N-[(1S,2S)-2-hydroxycyclohexyl]-4-{[4-(1-methyl-1H-pyrazol-4-yl)piperazin-1-yl]methyl}quinoline-2-carboxamide], the EC50 amounted to 0.369 µM.

For the compound `Cc1ccnc(C2(C#N)CCN(Cc3cc(C(=O)N[C@H]4CCCC[C@@H]4O)nc4ccccc34)CC2)c1` [Example 3, 4-{[4-cyano-4-(4-methylpyridin-2-yl)piperidin-1-yl]methyl}-N-[(1S,2S)-2-hydroxycyclohexyl]quinoline-2-carboxamide], the EC50 turned out to be 0.02 µM.

In the case of `N#CC1(c2ccccc2F)CCN(Cc2cc(C(=O)N[C@H]3CCCC[C@@H]3O)nc3ccccc23)CC1` [Example 5, 4-{[4-cyano-4-(2-fluorophenyl)piperidin-1-yl]methyl}-N-[(1S,2S)-2-hydroxycyclohexyl]quinoline-2-carboxamide], the EC50 turned out to be 0.081 µM. The value for `N#CC1(c2ccccc2)CCN(Cc2cc(C(=O)N[C@H]3CCCC[C@@H]3O)nc3ccccc23)CC1` [Example 4, 4-[(4-cyano-4-phenylpiperidin-1-yl)methyl]-N-[(1S,2S)-2-hydroxycyclohexyl]quinoline-2-carboxamide] was 0.325 µM; that for `Cc1ccccc1C1(C#N)CCN(Cc2cc(C(=O)N[C@H]3CCCC[C@@H]3O)nc3ccccc23)CC1` [Example 7, 4-{[4-cyano-4-(2-methylphenyl)piperidin-1-yl]methyl}-N-[(1S,2S)-2-hydroxycyclohexyl]quinoline-2-carboxamide] was 0.136 µM. With `N#CC1(c2ccccc2Cl)CCN(Cc2cc(C(=O)N[C@H]3CCCC[C@@H]3O)nc3ccccc23)CC1` [Example 6, 4-{[4-(2-chlorophenyl)-4-cyanopiperidin-1-yl]methyl}-N-[(1S,2S)-2-hydroxycyclohexyl]quinoline-2-carboxamide] the figure was 0.117 µM.
